Experimental data taken from patent EP0946545B1, “NOVEL CARBOXY SUBSTITUTED CYCLIC CARBOXAMIDE DERIVATIVES” (Aventis Pharmaceuticals Inc., priority 1996, dated 1998).
Structures can show the parent of a compound that is named as a salt.

Experiments:
[1] = target: T1, human jejunal NK2 receptor (Homo sapiens, UniProt P21452); assay: Antagonism of iodinated tachykinin binding to NK2 receptors (Example A); conditions: read-out: Tachykinin Receptor Binding NK2 IC50; HSKR-1 cells (mouse 3T3 fibroblasts expressing the human jejunal NK2 receptor); 0.1 nM 125iodohistidyl-1-neurokinin A; 2 hr room temperature; mean of several experiments
T1 construct: expressed in transfected cells; host or cells: HSKR-1 cells (mouse 3T3 fibroblasts)
T1 sequence (P21452 1-398): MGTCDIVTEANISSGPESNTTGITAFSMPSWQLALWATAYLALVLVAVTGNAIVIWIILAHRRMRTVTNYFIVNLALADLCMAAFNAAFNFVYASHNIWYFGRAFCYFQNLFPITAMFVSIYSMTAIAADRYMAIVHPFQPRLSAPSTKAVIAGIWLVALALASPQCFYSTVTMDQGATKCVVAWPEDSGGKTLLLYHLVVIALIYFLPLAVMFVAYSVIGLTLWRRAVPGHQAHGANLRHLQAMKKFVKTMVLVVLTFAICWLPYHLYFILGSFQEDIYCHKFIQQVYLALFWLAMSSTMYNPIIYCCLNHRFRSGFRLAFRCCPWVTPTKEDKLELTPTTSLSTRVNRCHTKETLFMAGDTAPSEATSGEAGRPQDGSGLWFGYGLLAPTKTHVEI
Protocol: (§1) One skilled in the art can determine the NK1 receptor and NK2 receptor affinity in vitro as follows. The NK1 receptor affinity of tachykinin antagonists is evaluated in guinea pig lungs (Keystone Biologicals, Cleveland, OH) and affinity for the NK2 receptor is evaluated in HSKR-1 cells (which are mouse 3T3 fibroblasts expressing the human jejunal NK2 receptor). Tissues or cells are homogenized with a Polytron in 15 volumes of 50 mM Tris-HC1 buffer (pH 7.4, 4°C) and centrifuged. The pellet is resuspended in Tris-HCl buffer and is centrifuged; the pellet is washed twice by resuspension. The final pellet is resuspended at a concentration of 40 mg/ml for tissues and 20 mg/ml for cells in incubation buffer and remains at room temperature for at least 15 min prior to use. Receptor binding is initiated by addition of 250 ul membrane preparation in duplicate to 0.1 nM of the following radioligands: ^125I-Bolton Hunter Lys-3 labeled substance P and ^125iodohistidyl-1-neurokinin A; in a final volume of 500 ul of buffer containing 50 mM Tris-HCl (pH 7.4 at room temperature), 0.1% bovine serum albumin, 2 mM mangenese chloride, 40 ug/ml bacitracin, 4 µg/ml leupeptin and chymostatin, 10 µM thiorphan and various doses of the putative tachykinin antagonists. Incubations are performed at room temperature for 90 min (NK1 receptor assays) or 2 hr (NK2 receptor assay); binding is terminated by addition of 50 mM Tris-HCl buffer (pH 7.4, 4°C) and filtration under vacuum through GF/B filters presoaked with 0.1% polyethyleneimine (NK1 receptor assays) or 0.5% bovine serum albumin (NK2 receptor assay). Filter bound radioactivity is quantitated in a gamma counter. Nonspecific binding is defined as binding in the presence of 1 µM substance P or neurokinin A. Specific binding is calculated by subtracting nonspecific binding from total binding. Competition of iodinated SP or NKA binding by test compounds or standards is expressed as a percentage of this maximum binding. IC50 values (concentration required to inhibit 50% of receptor binding) are generated for each of the test compounds by nonlinear regression using an iterative curve fitting program (GraphPAD Inplot, San Diego, CA).
(§2) Tackykinin receptor binding (IC50 values) for representative compounds of the present invention is found in Table 1. The values in Table 1 were determined by the method of present Example A and represent the mean of several experiments, except where noted. […]

NK1 receptor = target: T2, NK1 receptor (Cavia porcellus, UniProt P30547); assay: Antagonism of iodinated tachykinin binding to NK1 receptors (Example A); design: species or system guinea pig; conditions: read-out: Tachykinin Receptor Binding NK1 IC50; guinea pig lungs membranes; 0.1 nM 125I-Bolton Hunter Lys-3 labeled substance P; 90 min room temperature; mean of several experiments
T2 construct: evaluated in guinea pig lungs (Keystone Biologicals, Cleveland, OH); tissue Keystone Biologicals, Cleveland, OH; host or cells: guinea pig lung membranes
Protocol: as §1, §2

T2 sequence (P30547 whole entry): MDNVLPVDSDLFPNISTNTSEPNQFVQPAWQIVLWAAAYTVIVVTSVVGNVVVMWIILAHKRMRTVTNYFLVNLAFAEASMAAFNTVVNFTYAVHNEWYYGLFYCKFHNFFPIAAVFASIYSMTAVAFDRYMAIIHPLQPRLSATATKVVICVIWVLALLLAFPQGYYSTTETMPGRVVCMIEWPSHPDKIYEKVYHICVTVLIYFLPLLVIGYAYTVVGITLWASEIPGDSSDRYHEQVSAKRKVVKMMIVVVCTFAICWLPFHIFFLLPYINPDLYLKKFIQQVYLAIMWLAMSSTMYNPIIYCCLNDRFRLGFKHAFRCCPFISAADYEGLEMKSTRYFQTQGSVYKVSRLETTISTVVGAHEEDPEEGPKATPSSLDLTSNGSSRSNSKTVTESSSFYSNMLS

Structure (SMILES) | IC50 [1] | IC50 (NK1 receptor)
COc1cc(C(=O)N2CC[C@](CCN3CCC(C(=O)N4CCN(CC(=O)OCC(=O)N(C)CCN(C)C)CC4)(c4ccccc4)CC3)(c3ccc(Cl)c(Cl)c3)C2)cc(OC)c1OC [Example 37.2, (R)-1-(3,4,5-Trimethoxybenzoyl)-3-(2-(4-phenyl-4-((4-carbo(N-methyl-N-(2-dimethylaminoethyl))carboxamidomethoxy)methylpiperazin-1-yl)carboxamido)piperidin-1-yl)ethyl)-3-(3,4-dichlorophenyl)pyrrolidine fumaric acid salt] | 0.9 nM | 2.09 nM
COc1cc(C(=O)N2CC[C@](CCN3CCC(C(=O)N4CCN(CC(=O)OCc5oc(=O)oc5C)CC4)(c4ccccc4)CC3)(c3ccc(Cl)c(Cl)c3)C2)cc(OC)c1OC [Example 38.2, (R)-1-(3,4,5-Trimethoxybenzoyl)-3-(2-(4-phenyl-4-((4-carbo(5-methyl-2-oxo-1,3-dioxol-4-yimethoxy)methylpiperazin-1-yl)carboxamido)piperidin-1-yl)ethyl)-3-(3,4-dichlorophenyl)pyrrolidine fumaric acid salt] | 4.3 nM | 7.82 nM
